Here are results for two molecules from EP0426804B1, “2-(2-HYDROXY-3-PHENOXYPROPYLAMINO)-ETHOXYBENZENE DERIVATIVES” (IMPERIAL CHEMICAL INDUSTRIES PLC, priority 1989, dated 1990).

Where only a bound is given, the exact number is not on record here.

Assay [1] in a line: test (c): heart rate in rats adapted to a thermoneutral environment (D500 dose and selectivity index). To be noted: ratio of D₅₀₀ to ED₅₀ in test (b).
Assay [2] in a line: test (d): metabolic rate (oxygen consumption) in cold adapted rats. To be noted: at 1mgkg⁻¹ p.o. In kind it is in vivo.
In the next assay the test system is BAT mitochondria. Briefly: test (b): GDP binding in BAT mitochondria of cold adapted rats, relative to isoprenaline. In kind it is in vivo. To be noted: dose necessary to produce 50% of the isoprenaline (1 mg/kg) effect on GDP binding.

For `CCCC(=O)Cc1ccc(OCCNCC(O)COc2ccccc2)cc1` (stereo not shown) [Example 5, 1-[4-(2-(2-hydroxy-3-phenoxypropylamino)ethoxy)phenyl]pentan-2-one], the SI in assay [1] (oral) is listed as over 100. Besides, in assay [2], the metabolic rate turned out to be 6.6 ml O₂ min ⁻¹Kg^.75. In the assay with BAT mitochondria, the ED₅₀ worked out at 0.23 mgkg⁻¹.

As to `CC(C)NCC(O)c1ccc(O)c(O)c1` (stereo not shown) [isoprenaline, reference compound], the SI in assay [1] (route not stated) stood at 0.06.
